Experiments:
tau [1] = experiment: Tau clearance in SH-SY5Y cells by Western blotting; format: cell-based, human
Experimental: SH-SY5Y human neuroblastoma cells were cultured in 90% DME/F-12 medium (HyClone, SH30023.01) with 10% fetal bovine serum (FBS) (Biological Industries, 04-001-1ACS) and penicillin (100 U/mL)/ streptomycin (100 μg/mL) in a 37 °C incubator with humidified atmosphere of 5% CO2. Human embryonic kidney 293 cells (HEK293) or HEK293 with stable expression of wild-type full-length human tau (termed as HEK293-hTau) were cultured in 90% DMEM/High Glucose medium (HyClone, SH30022.01) containing 10% FBS and 200 μg/mL G418 (ThermoFisher Scientific, 10131027), in a humidified atmosphere of 5% CO2 at 37 °C. Neofect (DNA transfection reagent, TF20121201) was used for plasmids transfection. The cells were placed onto 6-well or 12-well plates. Plasmids (EGFP-hTau or 3xFlag-hTau or the vector), neofect and Opti-MEM medium (Gibco, 31985-070) were made into a mixture in a ratio of 1 μg: 1 μL : 100 μL and then added into each well of the plate. To inhibit proteasome activity, HEK293-hTau cells were cultured with DMEM/High medium containing 20 μM C004019 with or without 10 μM MG132, or the same volume of vehicle (DMSO) for 24 h at 37 °C. To induce tau hyperphosphorylation, SH-SY5Y cells were cultured with DME/F-12 medium containing 10 μM C004019 with or without 1 μM GFX and 1 μM WO for 24 h at 37 °C.
(§1) The cells or hippocampal/cortex tissues were homogenized for ~ 30 min on ice in buffer [50 mM Tris·HCl pH 7.4-7.5, 100 mM NaCl, 1% (vol/vol) Triton X-100, 5 mM EDTA, 1:100 PMSF, 1:1,000 protease inhibitor cocktail containing 4-(2-Aminoethyl)-benzenesulfonyl fluoride hydrochloride, aprotinin, bestatin, leupeptin, E-64, and pepstatin A stored at 4 °C], and then centrifuged at 12,000 × g at 4 °C for 20 min. The supernatant was collected and the protein levels were analyzed using bicinchoninic acid (BCA, KF016, Sigma-Aldrich) by following the manufacturer's instruction (served as soluble protein). The pellet was further incubated with 8% (wt/vol) SDS buffer at 4 °C and then treated by ultrasonic wave to reach a complete resuspension. […] Immunoreactive bands were quantitatively analyzed by Image J2x software.

tau [2] = target: tau (Mus musculus, UniProt P10637); experiment: Intracerebroventricular infusion in wild-type mice, brain tau by Western blotting; format: in vivo; details: 4 m-old wild-type mice, intracerebroventricular 5 μL, 200 μM
Experimental: (§2) For brain surgery and stereotaxic cerebroventricular drug delivery, the mice were placed in a stereotaxic apparatus and anesthetized with 2% isoflurane (RWD Life Science, R510-22) through a nose cone (300-500 mL/min, RWD Life Science, China, R500). The scalp was incised along the midline between the ears after the mice were sterilized with iodophors and 75% (vol/vol) alcohol. The holes were drilled stereotaxically in the skull at a cerebroventricular location (posterior 0.22 mm, lateral 0.9 mm, and ventral 2.3 mm relative to bregma). Using a microinjection system (Shenzhen RWD Life Technology Co., Ltd; RWD 69100), C004019 (5 μL, 200 μM) was infused at a rate of 0.5 μL/min. The needle was kept in place for 10 min before withdrawal. After the skin was sutured, the mice were placed on a heater for analepsia. For subcutaneous injection, C004019 was diluted with 20% HP-β-CD and injected under the skin on the back neck to reach a final concentration of 3 mg/kg (low dose) or 15 mg/kg (high dose).
as §1, with “resuspension. The suspension was spun (18,000 × g, 4 °C for 20 min) and the supernatant collected (served as insoluble fraction). The supernatant of different faction was respectively mixed with loading buffer (3:1, vol/vol) containing 200 mM Tris-HCl, pH 6.8, 8% SDS, 40% glycerol, and boiled for 10 min.” for “resuspension.”

tau [3] = target: T1, tau (UniProt P10636+P40338, P618L); experiment: Intracerebroventricular infusion in 3xTg-AD mice, brain tau by Western blotting and immunohistochemistry; format: in vivo, mouse; details: 9.5 m-old 3xTg-AD mice; intracerebroventricular 5 μL, 200 μM; 48 h
T1 construct: tissue stock number 34830; host or cells: hippocampus and cortex of 9.5 m-old 3xTg-AD mice
Experimental: as §2, with “The needle was kept in place for 10 min before withdrawal. After the skin was sutured, the mice were placed on a heater for analepsia. For subcutaneous injection, C004019 was diluted with 20% HP-β-CD and injected under the skin on the back neck to reach a final concentration of 3 mg/kg (low dose) or 15 mg/kg (high dose).” left out
as §1, with “protein).” for “protein). The pellet was further incubated with 8% (wt/vol) SDS buffer at 4 °C and then treated by ultrasonic wave to reach a complete resuspension.”, “software. […]” for “software.”

tau [4] = target: T1, tau; experiment: Multiple-doses subcutaneous administration in 3xTg-AD mice, brain tau; format: in vivo, mouse; details: 9.5 m-old 3xTg-AD mice, subcutaneous 3 mg/kg every 6 days, 5 times
Experimental: as §2
as §1, with “resuspension. The suspension was spun (18,000 × g, 4 °C for 20 min) and the supernatant collected (served as insoluble fraction). The supernatant of different faction was respectively mixed with loading buffer (3:1, vol/vol) containing 200 mM Tris-HCl, pH 6.8, 8% SDS, 40% glycerol, and boiled for 10 min.” for “resuspension.”, “software. […]” for “software.”

MAP2 = target: T2, MAP2 (Mus musculus, UniProt P20357); experiment: MAP2 protein level after intracerebroventricular infusion (specificity); format: in vivo; details: 4 m-old wild-type and 9.5 m-old 3xTg-AD mice; intracerebroventricular 5 μL, 200 μM
T2 construct: from tissue; host or cells: hippocampus and cortex of wild-type and 3xTg-AD mice
Experimental: as §2, with “The needle was kept in place for 10 min before withdrawal. After the skin was sutured, the mice were placed on a heater for analepsia. For subcutaneous injection, C004019 was diluted with 20% HP-β-CD and injected under the skin on the back neck to reach a final concentration of 3 mg/kg (low dose) or 15 mg/kg (high dose).” left out
as §1, with “protein).” for “protein). The pellet was further incubated with 8% (wt/vol) SDS buffer at 4 °C and then treated by ultrasonic wave to reach a complete resuspension.”

amyloid-β plaque = experiment: Congo red staining of amyloid-β plaque in 3xTg-AD mice; format: in vivo, mouse; details: 9.5 m-old 3xTg-AD mice; subcutaneous 3 mg/kg every 6 days, 5 times

tau (Mus musculus, UniProt P10637), sequence (P10637 114-430 isoform P10637-2 limits assumed): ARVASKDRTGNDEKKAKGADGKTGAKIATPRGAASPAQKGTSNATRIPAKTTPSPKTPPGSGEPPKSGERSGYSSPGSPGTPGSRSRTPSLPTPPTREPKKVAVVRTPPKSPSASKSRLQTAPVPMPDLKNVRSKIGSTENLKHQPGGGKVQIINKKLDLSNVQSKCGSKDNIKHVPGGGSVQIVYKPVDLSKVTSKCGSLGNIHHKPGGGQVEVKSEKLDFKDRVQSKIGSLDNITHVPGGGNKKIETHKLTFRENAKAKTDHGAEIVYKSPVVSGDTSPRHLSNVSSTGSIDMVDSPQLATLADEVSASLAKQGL
T1 sequence (P10636 1-383 isoform P10636-6 P243L): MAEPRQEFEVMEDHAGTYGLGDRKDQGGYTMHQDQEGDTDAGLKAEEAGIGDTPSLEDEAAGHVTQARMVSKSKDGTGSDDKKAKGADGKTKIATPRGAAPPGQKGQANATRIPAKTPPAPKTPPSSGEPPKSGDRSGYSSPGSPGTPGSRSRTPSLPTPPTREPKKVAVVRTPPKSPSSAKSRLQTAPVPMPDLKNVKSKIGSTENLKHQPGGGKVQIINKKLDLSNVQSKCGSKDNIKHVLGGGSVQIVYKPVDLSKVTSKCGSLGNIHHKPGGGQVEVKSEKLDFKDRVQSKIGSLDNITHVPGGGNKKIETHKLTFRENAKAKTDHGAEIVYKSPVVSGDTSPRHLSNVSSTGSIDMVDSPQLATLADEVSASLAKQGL
T1 sequence (P40338 whole entry, the tested form may be a part): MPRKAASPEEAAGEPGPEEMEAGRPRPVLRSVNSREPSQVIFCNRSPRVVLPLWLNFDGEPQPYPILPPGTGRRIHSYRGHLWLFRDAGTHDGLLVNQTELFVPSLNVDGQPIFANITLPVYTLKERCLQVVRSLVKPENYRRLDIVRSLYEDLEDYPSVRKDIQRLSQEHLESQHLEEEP
T1 sequence (P83940 whole entry partner, the tested form may be a part): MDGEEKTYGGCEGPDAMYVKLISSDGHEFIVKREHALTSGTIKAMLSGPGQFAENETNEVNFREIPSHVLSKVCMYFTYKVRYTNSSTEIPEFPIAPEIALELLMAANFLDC
T1 sequence (P62869 whole entry partner, the tested form may be a part): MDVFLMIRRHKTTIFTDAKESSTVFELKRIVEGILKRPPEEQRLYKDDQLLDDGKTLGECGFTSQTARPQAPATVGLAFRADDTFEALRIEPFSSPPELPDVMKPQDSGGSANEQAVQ
T2 sequence (P20357 whole entry, the tested form may be a part): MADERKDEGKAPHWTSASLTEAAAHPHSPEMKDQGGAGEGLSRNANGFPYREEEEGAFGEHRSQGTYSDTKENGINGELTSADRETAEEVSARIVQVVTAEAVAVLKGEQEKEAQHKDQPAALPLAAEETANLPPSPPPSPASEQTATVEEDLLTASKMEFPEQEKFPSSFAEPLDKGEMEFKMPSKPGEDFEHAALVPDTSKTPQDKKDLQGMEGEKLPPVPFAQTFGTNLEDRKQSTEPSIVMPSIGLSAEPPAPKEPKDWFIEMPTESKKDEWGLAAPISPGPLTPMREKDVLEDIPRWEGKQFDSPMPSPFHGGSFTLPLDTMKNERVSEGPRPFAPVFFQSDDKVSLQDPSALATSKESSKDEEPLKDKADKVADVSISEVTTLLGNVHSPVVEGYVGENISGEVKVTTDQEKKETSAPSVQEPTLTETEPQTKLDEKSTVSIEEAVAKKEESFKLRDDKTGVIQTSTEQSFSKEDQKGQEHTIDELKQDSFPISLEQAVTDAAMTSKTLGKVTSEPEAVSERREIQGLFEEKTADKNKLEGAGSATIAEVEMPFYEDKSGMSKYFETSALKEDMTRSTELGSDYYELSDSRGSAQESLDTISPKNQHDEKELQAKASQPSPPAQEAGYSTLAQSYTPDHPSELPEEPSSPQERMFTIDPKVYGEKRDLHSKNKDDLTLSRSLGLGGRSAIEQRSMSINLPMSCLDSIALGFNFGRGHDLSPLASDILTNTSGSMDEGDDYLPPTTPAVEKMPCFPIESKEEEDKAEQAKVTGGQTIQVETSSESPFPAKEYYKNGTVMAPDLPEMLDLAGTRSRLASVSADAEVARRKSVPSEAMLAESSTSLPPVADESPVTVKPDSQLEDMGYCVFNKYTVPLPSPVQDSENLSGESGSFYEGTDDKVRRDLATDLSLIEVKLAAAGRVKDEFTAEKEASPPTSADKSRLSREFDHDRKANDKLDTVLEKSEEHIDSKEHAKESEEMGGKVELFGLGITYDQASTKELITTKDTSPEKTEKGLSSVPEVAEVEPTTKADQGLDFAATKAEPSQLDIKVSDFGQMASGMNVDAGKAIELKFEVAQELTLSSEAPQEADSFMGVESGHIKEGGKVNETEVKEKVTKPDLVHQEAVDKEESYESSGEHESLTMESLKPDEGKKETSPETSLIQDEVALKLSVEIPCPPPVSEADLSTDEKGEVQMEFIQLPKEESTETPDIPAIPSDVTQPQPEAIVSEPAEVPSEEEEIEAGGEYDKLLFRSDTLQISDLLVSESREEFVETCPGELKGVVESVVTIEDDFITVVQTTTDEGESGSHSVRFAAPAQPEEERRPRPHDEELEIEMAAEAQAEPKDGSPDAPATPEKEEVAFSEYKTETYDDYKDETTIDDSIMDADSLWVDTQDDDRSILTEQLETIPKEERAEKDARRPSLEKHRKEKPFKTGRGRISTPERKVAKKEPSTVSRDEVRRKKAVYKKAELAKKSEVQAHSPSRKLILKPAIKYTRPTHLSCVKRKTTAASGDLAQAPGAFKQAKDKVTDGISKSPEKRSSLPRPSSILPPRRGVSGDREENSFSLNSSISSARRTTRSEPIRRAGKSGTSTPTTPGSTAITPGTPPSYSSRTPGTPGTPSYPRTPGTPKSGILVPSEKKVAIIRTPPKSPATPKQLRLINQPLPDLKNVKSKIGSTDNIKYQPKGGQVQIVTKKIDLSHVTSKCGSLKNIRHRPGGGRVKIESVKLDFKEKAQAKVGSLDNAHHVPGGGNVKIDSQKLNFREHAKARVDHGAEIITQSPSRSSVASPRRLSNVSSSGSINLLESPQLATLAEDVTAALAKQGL

## CC(=O)N1CCCN(c2nc(NCCc3cccs3)nc(N(C)CC(=O)NCCOCCOCCOCC(=O)N[C@H](C(=O)N3C[C@H](O)C[C@H]3C(=O)NCc3ccc(-c4scnc4C)cc3)C(C)(C)C)n2)CC1 [C004019]
Tau [1]; 10 μM C004019 with WO (1 μM) plus GFX (1 μM), 24 h
  p-tau and total tau levels under induced tau hyperphosphorylation: could efficiently decrease p-tau and total tau levels
Tau [1]; 20 μM
  phosphorylated tau level: could decrease phosphorylated tau
Tau [1]; Western blotting
  total tau (Tau5) and p-tau level: concentration-dependent reduction
Tau [2]; 24 h
  hippocampal tau level: most remarkable hippocampal tau reduction
Tau [2]; 24 h and 48 h
  brain cortex tau level: significant reduction of tau was only detected at 48 h but not 24 h
Tau [2]; 48 h
  hippocampal tau level: still very significant
Tau [3]
  total tau and p-tau levels in hippocampus and cortex: reduced total tau and the p-tau levels
Tau [4]
  p-tau and aggregated tau (pS404, AT8 immunohistochemistry, Thioflavin S staining): Reduction of p-tau and aggregated tau proteins
Tau [4]; Western blotting
  oligomer tau (T22-positive) in the soluble fraction: significantly reduced T22-positive tau
  soluble and insoluble tau levels in hippocampal and cortex extracts: remarkably reduced both soluble and insoluble tau levels
MAP2
  protein level of MAP2: did not change the level of MAP2
amyloid-β plaque
  amyloid-β plaque (Congo red staining): No significant effects on amyloid-β plaque
